{
  "source": "patent US10081602B2",
  "about": "“Opioid agonists and uses thereof” (Nektar Therapeutics, priority 2013, dated 2018)",
  "key": {"[1]": {"system": "locomotor activity of mice", "assay": "Locomotor activity", "assay_type": "in vivo", "settings": "oral, 30 min predose, 20 min observation", "procedure": "Male Swiss Albino mice were treated orally with vehicle (0.5% HPMC+0.1% Tween80), ketazocine, Compound 12 (0.3, 3 and 30 mg/kg) or Compound 20 (0.3, 3 and 30 mg/kg) thirty minutes prior to placement in the locomotor activity chamber. Total distance travelled was measured over the twenty minute observation time following placement in the locomotor activity chamber. Data are normalized relative to percent distance travelled in the vehicle group. The efficacy of Compound 12 (reported as percent distance travelled in comparison to vehicle) was 88.85%, 83.74% and 0.08% at 0.3, 3 and 30 mg/kg dosages, respectively, while the locomotor activity of Compound 20 (reported as percent distance travelled in comparison to vehicle) was 100%, 88% and 0.03% at 0.3, 3 and 30 mg/kg dosages, respectively."}, "[2]": {"system": "acetic acid-induced writhing (visceral pain) in mice", "assay": "Acetic acid writhing (AAW) analgesic assay", "assay_type": "in vivo", "procedure": "An analgesic assay was used to determine whether a given compound can reduce and/or prevent visceral pain in mice. The assay utilizes Swiss Albino or CD-1 male mice (5-10 mice per group), each mouse being approximately 0.015-0.030 kg on the study day. Mice were treated according to standard protocols.\nThe animal was given an intraperitoneal (IP) injection of an irritant (acetic acid) that induces “writhing” which may include: contractions of the abdomen, twisting and turning of the trunk, arching of the back and the extension of the hindlimbs. Mice are given a single IP injection (0.1 mL/10 g bodyweight) of a 0.5% acetic acid solution. After the injection the animals were returned to their observation enclosure and their behavior was observed. Contractions were counted between 0 and 20 minutes after the injection. The animals were used once. In certain instances, the test articles were administered at multiple doses to determine a dose response curve.\nTable 4 provides the results for certain compounds of the present invention that were administered subcutaneously. Table 5 provides the results for certain compounds of the present invention that were administered orally."}},
  "note": "Where “and” joins values, the source holds several entries; their conditions need not be identical. Equal entries are not always repeated.",
  "data": [
    {"smiles": "COCCOCCOCCOCCOCCNc1ccc(Nc2ccc3c(c2)[C@]2(C)CCN(CC4CC4)[C@H](C3=O)[C@@H]2C)cc1", "note": "[Example 12, (2S,6R,11R)-8-((4-(2,5,8,11,14-pentaoxahexadecan-16-ylamino)phenyl)amino)-3-(cyclopropylmethyl)-6,11-dimethyl-3,4,5,6-tetrahydro-2,6-methanobenzo[d]azocin-1(2H)-one]", "values": [
      {"measurement": "percent distance travelled in comparison to vehicle", "setting": "[1]; 0.3 mg/kg", "result": 88.85, "unit": "%"},
      {"measurement": "percent distance travelled in comparison to vehicle", "setting": "[1]; 3 mg/kg", "result": 83.74, "unit": "%"},
      {"measurement": "percent distance travelled in comparison to vehicle", "setting": "[1]; 30 mg/kg", "result": 0.08, "unit": "%"},
      {"measurement": "AAW % Efficacy", "setting": "[2]; oral, 0.1 mg/kg", "result": 22.5, "unit": "%"},
      {"measurement": "AAW % Efficacy", "setting": "[2]; oral, 1 mg/kg", "result": 56.9, "unit": "%"},
      {"measurement": "AAW % Efficacy", "setting": "[2]; oral, 10 mg/kg", "result": "97.2% and 90.2%"},
      {"measurement": "AAW % Efficacy", "setting": "[2]; subcutaneous, 30 mg/kg", "result": 100.0, "unit": "%"}
    ]},
    {"smiles": "C[C@H]1[C@H]2C(=O)c3ccc(Nc4ccc(NCCOCCOCCOCCOCCOC(F)(F)F)cc4)cc3[C@]1(C)CCN2CC1CC1", "note": "[Example 20, (2S,6R,11R)-3-(cyclopropylmethyl)-6,11-dimethyl-8-((4-((1,1,1-trifluoro-2,5,8,11,14-pentaoxahexadecan-16-yl)amino)phenyl)amino)-3,4,5,6-tetrahydro-2,6-methanobenzo[d]azocin-1(2H)-One]", "values": [
      {"measurement": "percent distance travelled in comparison to vehicle", "setting": "[1]; 0.3 mg/kg", "result": 100, "unit": "%"},
      {"measurement": "percent distance travelled in comparison to vehicle", "setting": "[1]; 3 mg/kg", "result": 88, "unit": "%"},
      {"measurement": "percent distance travelled in comparison to vehicle", "setting": "[1]; 30 mg/kg", "result": 0.03, "unit": "%"},
      {"measurement": "AAW % Efficacy", "setting": "[2]; oral, 0.3 mg/kg", "result": 39.1, "unit": "%"},
      {"measurement": "AAW % Efficacy", "setting": "[2]; oral, 3 mg/kg", "result": 79.5, "unit": "%"},
      {"measurement": "AAW % Efficacy", "setting": "[2]; oral, 30 mg/kg", "result": 100.0, "unit": "%"},
      {"measurement": "AAW % Efficacy", "setting": "[2]; subcutaneous, 10 mg/kg", "result": 88.1, "unit": "%"}
    ]},
    {"smiles": "COCCOCC(=O)NCc1ccc2c(c1)[C@]1(C)CCN(CC3CC3)C(C2=O)[C@@H]1C", "note": "[Example 17, N,N-(((2S,6R,11R)-3-(cyclopropylmethyl)-6,11-dimethyl-1-oxo-1,2,3,4,5,6-hexahydro-2,6-methanobenzo[d]azocin-8-yl)methyl)-2-(2-methoxyethoxy)acetamide]", "values": [
      {"measurement": "AAW % Efficacy", "setting": "[2]; subcutaneous, 10 mg/kg", "result": 23.3, "unit": "%"}
    ]},
    {"smiles": "COCCOCCNCc1ccc2c(c1)[C@]1(C)CCN(CC3CC3)[C@H](C2=O)[C@@H]1C", "note": "[Example 18, (2S,6R,11R)-3-(cyclopropylmethyl)-8-(((2-(2-methoxyethoxy)ethyl)amino)methyl)-6,11-dimethyl-3,4,5,6-tetrahydro-2,6-methanobenzo[d]azocin-1(2H)-one]", "values": [
      {"measurement": "AAW % Efficacy", "setting": "[2]; subcutaneous, 10 mg/kg", "result": 31.9, "unit": "%"}
    ]},
    {"smiles": "C[C@H]1[C@H]2C(=O)c3cc4sc(N)nc4cc3[C@]1(C)CCN2CC1CC1", "note": "[Step 1 of 13, (6S,10R,12R)-2-amino-7-(cyclopropylmethyl)-10,12-dimethyl-7,8,9,10-tetrahydro-6,10-methanothiazolo[4′,5′:4,5]benzo[1,2-d]azocin-5(6H)-One]", "values": [
      {"measurement": "AAW % Efficacy", "setting": "[2]; subcutaneous, 10 mg/kg", "result": 100, "unit": "%"}
    ]},
    {"smiles": "COCCOCCOCCOCCOCCNc1nc2cc3c(cc2s1)C(=O)[C@@H]1[C@H](C)[C@@]3(C)CCN1CC1CC1", "note": "[Example 13, (6S,10R,12R)-2-(2,5,8,11,14-pentaoxahexadecan-16-ylamino)-7-(cyclopropylmethyl)-10,12-dimethyl-7,8,9,10-tetrahydro-6,10-methanothiazolo[4′,5′:4,5]benzo[1,2-d]azocin-5(6H)-one]", "values": [
      {"measurement": "AAW % Efficacy", "setting": "[2]; subcutaneous, 10 mg/kg", "result": 40.2, "unit": "%"}
    ]}
  ]
}
